Test [1] deals with Lymphocyte. As to the kind of experiment: Immunosuppressive activity in C57BL/6 mouse lymphocytes cocultured with mitomycin C-stimulated BALB/c mouse splenocyte assessed as [3H]thymidine incorporation after 72 hrs by mixed lymphocyte reaction.
The target of test [2] is Tyrosine-protein kinase Lck (Homo sapiens, UniProt P06239). As to the kind of experiment: Inhibition of GST-tagged human LCK by scintillation counting.
In test [3] the target is Proto-oncogene tyrosine-protein kinase Src (Homo sapiens, UniProt P12931). As to the kind of experiment: Inhibition of SRC.
Proto-oncogene tyrosine-protein kinase Src, sequence (P12931 2-536 limits assumed): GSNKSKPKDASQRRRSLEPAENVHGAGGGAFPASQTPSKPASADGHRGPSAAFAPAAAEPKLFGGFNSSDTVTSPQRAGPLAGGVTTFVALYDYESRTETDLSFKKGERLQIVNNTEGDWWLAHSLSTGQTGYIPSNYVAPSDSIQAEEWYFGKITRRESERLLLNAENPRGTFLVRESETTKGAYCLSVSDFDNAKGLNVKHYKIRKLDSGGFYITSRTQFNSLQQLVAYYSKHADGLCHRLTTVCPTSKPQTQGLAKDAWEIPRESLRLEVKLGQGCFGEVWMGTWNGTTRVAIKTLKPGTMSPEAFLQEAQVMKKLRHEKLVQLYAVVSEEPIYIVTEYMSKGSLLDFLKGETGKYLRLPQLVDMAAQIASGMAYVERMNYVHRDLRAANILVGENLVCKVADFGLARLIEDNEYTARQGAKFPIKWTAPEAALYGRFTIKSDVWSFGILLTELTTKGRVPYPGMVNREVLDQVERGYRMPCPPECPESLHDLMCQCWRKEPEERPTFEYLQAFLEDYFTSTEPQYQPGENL
Test [4] deals with Tyrosine-protein kinase CSK (Homo sapiens, UniProt P41240). In words: Inhibition of Csk.
Tyrosine-protein kinase CSK, sequence (P41240 whole entry): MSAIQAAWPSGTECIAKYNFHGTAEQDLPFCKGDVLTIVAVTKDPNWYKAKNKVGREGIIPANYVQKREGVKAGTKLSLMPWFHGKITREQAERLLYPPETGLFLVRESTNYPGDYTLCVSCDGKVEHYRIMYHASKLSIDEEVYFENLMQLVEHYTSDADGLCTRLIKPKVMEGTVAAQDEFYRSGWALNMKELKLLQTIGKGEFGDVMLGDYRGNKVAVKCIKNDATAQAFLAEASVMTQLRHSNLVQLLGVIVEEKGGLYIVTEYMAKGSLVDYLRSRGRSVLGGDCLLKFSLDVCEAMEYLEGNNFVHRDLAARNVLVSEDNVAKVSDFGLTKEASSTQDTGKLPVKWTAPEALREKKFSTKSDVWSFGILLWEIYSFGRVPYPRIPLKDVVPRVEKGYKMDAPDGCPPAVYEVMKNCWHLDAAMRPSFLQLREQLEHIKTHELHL
Test [5] addresses T1, Tyrosine-protein kinase ZAP-70 (Homo sapiens, UniProt P43403).
T1 sequence (P43403 whole entry): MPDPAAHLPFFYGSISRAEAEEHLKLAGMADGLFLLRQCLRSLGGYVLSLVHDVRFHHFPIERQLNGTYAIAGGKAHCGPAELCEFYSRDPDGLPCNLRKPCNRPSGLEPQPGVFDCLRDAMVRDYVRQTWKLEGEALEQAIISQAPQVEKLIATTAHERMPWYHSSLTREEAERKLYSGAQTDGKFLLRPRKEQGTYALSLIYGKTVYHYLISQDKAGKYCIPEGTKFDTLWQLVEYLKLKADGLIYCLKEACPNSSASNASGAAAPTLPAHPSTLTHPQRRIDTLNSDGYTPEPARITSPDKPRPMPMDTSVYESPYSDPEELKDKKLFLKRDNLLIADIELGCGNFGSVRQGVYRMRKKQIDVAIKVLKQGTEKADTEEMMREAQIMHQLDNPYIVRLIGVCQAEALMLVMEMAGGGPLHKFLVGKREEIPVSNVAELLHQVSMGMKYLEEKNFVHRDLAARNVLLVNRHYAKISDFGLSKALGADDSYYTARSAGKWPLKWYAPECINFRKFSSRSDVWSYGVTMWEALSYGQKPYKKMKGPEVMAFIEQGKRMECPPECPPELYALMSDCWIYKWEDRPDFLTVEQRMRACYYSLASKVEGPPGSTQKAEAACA
In words: Inhibition of Zap70.

Test [6] concerns the target Dual specificity mitogen-activated protein kinase kinase 1 (Homo sapiens, UniProt Q02750). As to the kind of experiment: Inhibition of MEK1.
A short description of test [7]: Inhibition of PKA.
For test [8], the target named is RAC-alpha serine/threonine-protein kinase (Homo sapiens, UniProt P31749). In words: Inhibition of PKBalpha.
RAC-alpha serine/threonine-protein kinase, sequence (P31749 whole entry): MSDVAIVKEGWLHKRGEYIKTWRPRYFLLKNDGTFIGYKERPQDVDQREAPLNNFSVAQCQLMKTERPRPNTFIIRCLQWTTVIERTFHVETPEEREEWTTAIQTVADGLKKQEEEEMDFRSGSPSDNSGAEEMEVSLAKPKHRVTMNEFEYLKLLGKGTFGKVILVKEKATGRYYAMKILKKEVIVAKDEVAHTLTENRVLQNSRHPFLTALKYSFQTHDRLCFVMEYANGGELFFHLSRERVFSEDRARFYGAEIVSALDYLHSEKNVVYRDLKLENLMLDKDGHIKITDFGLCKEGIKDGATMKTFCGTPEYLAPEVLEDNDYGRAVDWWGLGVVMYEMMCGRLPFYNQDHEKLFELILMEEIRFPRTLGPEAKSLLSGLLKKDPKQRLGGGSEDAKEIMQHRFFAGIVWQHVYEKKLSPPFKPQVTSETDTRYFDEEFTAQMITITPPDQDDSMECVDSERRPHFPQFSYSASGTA
Test [9] deals with Protein kinase C alpha type (Homo sapiens, UniProt P17252). As to the kind of experiment: Inhibition of PKCalpha.
Test [10] concerns the target Cyclin-dependent kinase 1 (Homo sapiens, UniProt P06493). In words: Inhibition of CDK1.
For test [11], the target named is T2, Calcium/calmodulin-dependent protein kinase type IV (Homo sapiens, UniProt Q16566).
T2 sequence (Q16566 whole entry): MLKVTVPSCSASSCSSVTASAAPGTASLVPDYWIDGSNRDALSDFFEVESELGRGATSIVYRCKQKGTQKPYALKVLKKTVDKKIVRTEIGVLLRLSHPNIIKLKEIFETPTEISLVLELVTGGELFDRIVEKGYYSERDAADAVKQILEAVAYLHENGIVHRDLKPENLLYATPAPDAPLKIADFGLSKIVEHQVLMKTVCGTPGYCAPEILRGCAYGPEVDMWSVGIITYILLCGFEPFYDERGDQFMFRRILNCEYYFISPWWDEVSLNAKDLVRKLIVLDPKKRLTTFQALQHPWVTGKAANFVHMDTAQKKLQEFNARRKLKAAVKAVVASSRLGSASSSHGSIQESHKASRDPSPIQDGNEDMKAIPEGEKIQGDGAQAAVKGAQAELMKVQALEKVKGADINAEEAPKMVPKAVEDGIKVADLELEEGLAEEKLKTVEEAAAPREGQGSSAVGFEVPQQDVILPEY
In words: Inhibition of CamK4.

The target in test [12] is Mitogen-activated protein kinase 1 (Homo sapiens, UniProt P28482). As to the kind of experiment: Inhibition of MAPK1.
Mitogen-activated protein kinase 1, sequence (P28482 whole entry): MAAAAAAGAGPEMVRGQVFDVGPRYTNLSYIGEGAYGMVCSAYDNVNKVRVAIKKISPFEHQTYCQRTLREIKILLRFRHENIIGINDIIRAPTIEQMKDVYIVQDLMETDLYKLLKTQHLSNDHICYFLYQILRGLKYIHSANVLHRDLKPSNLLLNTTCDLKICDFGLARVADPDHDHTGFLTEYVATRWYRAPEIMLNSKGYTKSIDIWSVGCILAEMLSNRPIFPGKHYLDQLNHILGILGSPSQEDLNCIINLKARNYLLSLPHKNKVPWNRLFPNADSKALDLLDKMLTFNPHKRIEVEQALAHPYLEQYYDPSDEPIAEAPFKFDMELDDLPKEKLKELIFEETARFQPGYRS

Some results are limits rather than exact numbers.

Tyrosine-protein kinase Lck, sequence (P06239 whole entry): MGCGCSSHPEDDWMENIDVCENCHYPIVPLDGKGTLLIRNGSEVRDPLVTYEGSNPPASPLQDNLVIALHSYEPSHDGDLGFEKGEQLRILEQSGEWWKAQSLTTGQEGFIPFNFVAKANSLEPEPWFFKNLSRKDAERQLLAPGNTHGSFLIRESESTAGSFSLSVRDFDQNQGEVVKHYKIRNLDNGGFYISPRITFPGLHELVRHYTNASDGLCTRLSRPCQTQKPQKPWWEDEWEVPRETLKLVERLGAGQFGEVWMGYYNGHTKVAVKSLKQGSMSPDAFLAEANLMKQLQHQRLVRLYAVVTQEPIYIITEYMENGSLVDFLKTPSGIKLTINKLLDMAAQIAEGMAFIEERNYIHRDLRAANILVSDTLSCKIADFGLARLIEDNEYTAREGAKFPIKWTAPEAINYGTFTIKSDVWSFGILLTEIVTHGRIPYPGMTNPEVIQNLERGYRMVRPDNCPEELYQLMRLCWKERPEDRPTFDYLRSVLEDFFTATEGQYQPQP
Dual specificity mitogen-activated protein kinase kinase 1, sequence (Q02750 whole entry): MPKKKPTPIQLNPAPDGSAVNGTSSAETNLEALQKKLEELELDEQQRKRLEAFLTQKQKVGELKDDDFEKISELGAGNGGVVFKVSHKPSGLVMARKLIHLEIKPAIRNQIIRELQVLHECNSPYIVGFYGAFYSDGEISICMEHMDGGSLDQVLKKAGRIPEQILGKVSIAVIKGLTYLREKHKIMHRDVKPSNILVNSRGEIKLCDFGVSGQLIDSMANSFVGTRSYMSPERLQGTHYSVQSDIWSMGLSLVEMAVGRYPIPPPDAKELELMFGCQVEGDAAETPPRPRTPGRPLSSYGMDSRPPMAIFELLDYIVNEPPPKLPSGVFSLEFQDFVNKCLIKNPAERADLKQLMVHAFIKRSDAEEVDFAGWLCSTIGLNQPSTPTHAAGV
Cyclin-dependent kinase 1, sequence (P06493 whole entry): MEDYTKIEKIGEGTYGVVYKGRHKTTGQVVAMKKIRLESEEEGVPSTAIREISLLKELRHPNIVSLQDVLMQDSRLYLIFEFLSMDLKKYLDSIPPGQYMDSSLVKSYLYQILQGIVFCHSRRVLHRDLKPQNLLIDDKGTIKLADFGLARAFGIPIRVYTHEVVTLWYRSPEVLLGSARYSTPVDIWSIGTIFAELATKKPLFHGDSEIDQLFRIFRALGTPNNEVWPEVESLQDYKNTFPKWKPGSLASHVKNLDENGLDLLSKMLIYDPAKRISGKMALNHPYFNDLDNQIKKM

As for `NC(=O)c1c(-c2ccc(Oc3ccccc3)cc2)nn2c1Nc1cc(OCCN3CCOCC3)ccc1CC2`, the IC50 in [1] was 15 nM.
`NC(=O)COc1ccc2c(c1)Nc1c(C(N)=O)c(-c3ccc(Oc4ccccc4)cc3)nn1CC2`: in [1], the IC50 came out at 16 nM.
Regarding `CC(C)CCCOc1ccc2c(c1)Nc1c(C(N)=O)c(-c3ccc(Oc4ccccc4)cc3)nn1CC2`, the IC50 was > 100 nM in [2] and 620 nM in test [1].
`NC(=O)c1c(-c2ccc(Oc3ccccc3)cc2)nn2c1Nc1ccc(OCCN3CCOCC3)cc1CC2`: the IC50 in test [1] was found to be 1.1 nM.
On the same count and under the same terms, as for `NC(=O)c1c(-c2ccc(Oc3ccccc3)cc2)nn2c1Nc1ccc(OCc3ccncc3)cc1CC2`, the figure is 4.4 nM; as for `NC(=O)c1c(-c2ccc(Oc3ccccc3)cc2)nn2c1Nc1cc(OCC(=O)O)ccc1CC2`, > 1000 nM.
Same read-out and setting: as for `CN(C)CCOc1ccc2c(c1)Nc1c(C(N)=O)c(-c3ccc(Oc4ccccc4)cc3)nn1CC2`, the figure is 6.4 nM; as for `CN(C)CCCOc1ccc2c(c1)CCn1nc(-c3ccc(Oc4ccccc4)cc3)c(C(N)=O)c1N2`, 0.85 nM.
Turning to `CN(C)CCOc1ccc2c(c1)CCn1nc(-c3ccc(Oc4ccccc4)cc3)c(C(N)=O)c1N2`, the IC50 in test [2] was 0.72 nM; in test [3], 0.6 nM; in test [4], 1.7 nM; in test [5], > 1000 nM; in [6], > 10 µM; in test [7] it was > 10 µM. Moreover, the IC50 is > 10 µM in [8]; > 10 µM in test [9]; > 10 µM in [10]; > 10 µM in test [11]; > 10 µM in test [12]; 0.74 nM in [1].
For `NC(=O)c1c(-c2ccc(Oc3ccccc3)cc2)nn2c1Nc1cc(OCCO)ccc1CC2`, in test [1], the IC50 worked out at 58 nM.
Still for that read-out and setting: as for `NCCOc1ccc2c(c1)CCn1nc(-c3ccc(Oc4ccccc4)cc3)c(C(N)=O)c1N2`, the figure is 1.3 nM.
On the same count and under the same terms, as for `CN(C)CCOc1ccc2c(c1)CCn1nc(-c3ccc(N)cc3)c(C(N)=O)c1N2`, the figure is 180 nM; as for `CC(=O)COc1ccc2c(c1)Nc1c(C(N)=O)c(-c3ccc(Oc4ccccc4)cc3)nn1CC2`, 61 nM.
On to `CN(C)CCOc1ccc2c(c1)CCn1nc(-c3ccc(Nc4ccccc4)cc3)c(C(N)=O)c1N2`, for which, in test [1], the IC50 was determined as 8.2 nM.
Same read-out and setting: as for `NC(=O)c1c(-c2ccc(Oc3ccccc3)cc2)nn2c1Nc1ccc(OCCO)cc1CC2`, the figure is 1.2 nM.
On to `CN(C)CCOc1ccc2c(c1)CCn1nc(-c3ccc(NCc4c(Cl)cccc4Cl)cc3)c(C(N)=O)c1N2`, for which the IC50 in test [1] is 1.3 nM.
Still for that read-out and setting: as for `NCCOc1ccc2c(c1)Nc1c(C(N)=O)c(-c3ccc(Oc4ccccc4)cc3)nn1CC2`, the figure is 25 nM; as for `CN(C)CCCOc1ccc2c(c1)Nc1c(C(N)=O)c(-c3ccc(Oc4ccccc4)cc3)nn1CC2`, 12 nM.
Take `CN(C)CCOc1ccc2c(c1)CCn1nc(-c3ccc(NC(=O)Nc4c(Cl)cccc4Cl)cc3)c(C(N)=O)c1N2`: the IC50 in test [1] amounted to 21 nM.
For the molecule `NC(=O)c1c(-c2ccc(Oc3ccccc3)cc2)nn2c1Nc1cc(OCc3cccnc3)ccc1CC2`, the concentration for half-maximal inhibition (IC50) in test [1] was determined as 52 nM.
Still for that read-out and setting: as for `NC(=O)c1c(-c2ccc(Oc3ccccc3)cc2)nn2c1Nc1ccc(OCc3cccnc3)cc1CC2`, the figure is 1.5 nM; as for `CN1CCN(CCOc2ccc3c(c2)Nc2c(C(N)=O)c(-c4ccc(Oc5ccccc5)cc4)nn2CC3)CC1`, 12 nM.
For the molecule `NC(=O)c1c(-c2ccc(Oc3ccccc3)cc2)nn2c1Nc1ccc(OCc3ccccn3)cc1CC2`, the IC50 in test [1] worked out at 8.4 nM.
As for `CN(C)CCOc1ccc2c(c1)CCn1nc(-c3ccc(O)cc3)c(C(N)=O)c1N2`, in test [1], the IC50 amounted to 38 nM.
Still for that read-out and setting: as for `CN(C)CCOc1ccc2c(c1)CCn1nc(-c3ccc(NC(=O)OCc4ccccc4)cc3)c(C(N)=O)c1N2`, the figure is 23 nM; as for `COc1ccc2c(c1)Nc1c(C(N)=O)c(-c3ccc(Oc4ccccc4)cc3)nn1CC2`, 300 nM; as for `CN(C)CCOc1ccc2c(c1)CCn1nc(-c3ccc(NC(=O)Nc4ccccc4)cc3)c(C(N)=O)c1N2`, 50 nM.
The same measure, in the same setting: as for `CN1CCN(CCOc2ccc3c(c2)CCn2nc(-c4ccc(Oc5ccccc5)cc4)c(C(N)=O)c2N3)CC1`, the figure is 6.7 nM; as for `NC(=O)COc1ccc2c(c1)CCn1nc(-c3ccc(Oc4ccccc4)cc3)c(C(N)=O)c1N2`, 88 nM.
